What was measured:
PruAA5_2A [1] = target: T1, PruAA5_2A (Penicillium rubens, UniProt B6HHT0); assay: purified enzyme specific activity and kinetics (HRP/ABTS assay); format: biochemical
T1 construct: gene Pc21g18600; recombinant from P. pastoris
T1 sequence (B6HHT0 22-657): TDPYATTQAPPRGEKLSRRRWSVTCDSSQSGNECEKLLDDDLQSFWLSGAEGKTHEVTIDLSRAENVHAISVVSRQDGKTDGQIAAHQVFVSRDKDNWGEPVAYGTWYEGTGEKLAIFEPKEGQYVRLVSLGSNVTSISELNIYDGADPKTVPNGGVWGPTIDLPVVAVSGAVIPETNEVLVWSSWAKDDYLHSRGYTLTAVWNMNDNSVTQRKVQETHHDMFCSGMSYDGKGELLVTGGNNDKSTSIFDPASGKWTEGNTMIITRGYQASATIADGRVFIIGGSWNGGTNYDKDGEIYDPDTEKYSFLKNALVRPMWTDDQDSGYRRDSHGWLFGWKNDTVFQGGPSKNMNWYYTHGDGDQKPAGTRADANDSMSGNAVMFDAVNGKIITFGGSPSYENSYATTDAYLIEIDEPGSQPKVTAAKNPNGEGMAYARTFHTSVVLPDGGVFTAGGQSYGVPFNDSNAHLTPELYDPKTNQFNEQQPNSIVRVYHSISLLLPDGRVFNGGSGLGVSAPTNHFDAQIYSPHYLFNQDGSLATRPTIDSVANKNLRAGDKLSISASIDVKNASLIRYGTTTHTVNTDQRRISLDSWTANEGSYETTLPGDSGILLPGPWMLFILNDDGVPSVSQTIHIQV

PruAA5_2A [2] = target: T1, PruAA5_2A; assay: purified enzyme specific activity at […] (HRP/ABTS assay); format: biochemical
[3] = target: T2, FgrGaOx (galactose oxidase) (Fusarium graminearum, UniProt P0CS93); format: biochemical
T2 construct: gene GAOA

[4] = target: T2, FgrGaOx (galactose oxidase); format: biochemical; remark: listed apart in the source
PruAA5_2A [5] = target: T1, PruAA5_2A; assay: purified enzyme kinetics (HRP/ABTS assay) and MS of the C-6 oxidized product; […] U/mg at […]; format: biochemical
purified protein = substrate: OC1COC(O)CO1; assay: purified protein; format: biochemical, Penicillium rubens; details: copper; Tyr-Cys radical cofactor

T2 sequence (P0CS93 42-680 limits assumed): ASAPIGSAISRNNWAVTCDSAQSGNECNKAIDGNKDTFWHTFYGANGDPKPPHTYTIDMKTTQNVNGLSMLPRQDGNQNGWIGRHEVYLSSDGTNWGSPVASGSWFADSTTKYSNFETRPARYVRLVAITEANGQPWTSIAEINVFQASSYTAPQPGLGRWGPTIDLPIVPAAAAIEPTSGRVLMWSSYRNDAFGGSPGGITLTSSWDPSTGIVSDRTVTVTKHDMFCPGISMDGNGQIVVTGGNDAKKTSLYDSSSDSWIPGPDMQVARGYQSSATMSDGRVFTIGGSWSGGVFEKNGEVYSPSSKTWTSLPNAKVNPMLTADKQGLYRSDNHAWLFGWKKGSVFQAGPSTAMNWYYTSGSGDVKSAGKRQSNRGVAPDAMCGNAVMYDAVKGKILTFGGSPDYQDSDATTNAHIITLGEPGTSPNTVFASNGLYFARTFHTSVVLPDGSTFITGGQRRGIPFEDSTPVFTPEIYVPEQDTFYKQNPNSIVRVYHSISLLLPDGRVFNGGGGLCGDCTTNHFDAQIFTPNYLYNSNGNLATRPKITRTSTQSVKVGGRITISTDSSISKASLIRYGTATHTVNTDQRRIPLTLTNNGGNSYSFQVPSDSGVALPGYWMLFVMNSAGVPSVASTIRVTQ

With `OCC(O)CO` [glycerol] the “purified enzyme specific activity and kinetics (HRP/ABTS assay)” value (PruAA5_2A [1]) was 22.5 U/mg.

`OC[C@H]1O[C@H](OC[C@H]2O[C@H](OC[C@H]3O[C@H](O[C@]4(CO)O[C@H](CO)[C@@H](O)[C@@H]4O)[C@H](O)[C@@H](O)[C@@H]3O)[C@H](O)[C@@H](O)[C@H]2O)[C@H](O)[C@@H](O)[C@H]1O` [stachyose] was tested, and the “purified enzyme specific activity at 300 mM (HRP/ABTS assay)” value (PruAA5_2A [2]) was 9.4 U/mg.

`OC[C@H]1O[C@H](OC[C@H]2OC(O)[C@H](O)[C@@H](O)[C@@H]2O)[C@H](O)[C@@H](O)[C@H]1O` (stereo partly shown) [melibiose] was tested, and the “purified enzyme specific activity at 300 mM (HRP/ABTS assay)” value (PruAA5_2A [2]) was 17.5 U/mg.

With `OC[C@H]1OC(O)[C@H](O)[C@@H](O)[C@H]1O` (stereo partly shown) [galactose] the “purified enzyme kinetics (HRP/ABTS assay), kcat/KM 20 s^-1*mM^-1” value [3] was 20000 M⁻¹ s⁻¹.

`OC[C@H]1O[C@H](OC[C@H]2O[C@H](O[C@]3(CO)O[C@H](CO)[C@@H](O)[C@@H]3O)[C@H](O)[C@@H](O)[C@@H]2O)[C@H](O)[C@@H](O)[C@H]1O` [raffinose] was tested, and the “purified enzyme kinetics (HRP/ABTS assay), kcat/KM 30 s^-1*mM^-1” value [4] was 30000 M⁻¹ s⁻¹ and the “purified enzyme kinetics (HRP/ABTS assay) and MS of the C-6 oxidized product; 31” value (PruAA5_2A [5]) was 31.4 U/mg.

B1: PruAA5_2A (Penicillium rubens Wisconsin 54-1255) (protein)
chain: T1 sequence (B6HHT0 22-657)
notes: recombinant from P. pastoris
With B1 the Km (purified protein) was 53 mM.

Source: publication PMC6519835, “A family AA5_2 carbohydrate oxidase from Penicillium rubens displays functional overlap across the AA5 family” (PLoS ONE, 2019)
